Results reported in ChEMBL document CHEMBL1201862, “PubChem BioAssay data set” (2004).
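Values below derive from 48-hour exposures of cells grown in 96-well plates, with endpoints linearly interpolated between the two concentrations bracketing the appropriate inhibition level. At the GI50, growth is halved.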 The source made the active and inactive calls. Cut-off read from the data, not from the text of the source: active = GI50 up to about 1.1 µM and inactive = higher.

What was measured:
Assay in all cases: DTP human tumour cell line panel, 48 h
786-0 = tested on: 786-0
A498 = tested on: A498
A549 = tested on: A549
ACHN = tested on: ACHN
CCRF-CEM = tested on: CCRF-CEM
COLO 205 = tested on: COLO 205
DLD-1 = tested on: DLD-1
DMS-114 = tested on: DMS-114
DMS-273 = tested on: DMS-273
EKVX = tested on: EKVX
HCC 2998 = tested on: HCC 2998
HCT-116 = tested on: HCT-116
HCT-15 = tested on: HCT-15
HL-60 = tested on: HL-60
HOP-62 = tested on: HOP-62
HT-29 = tested on: HT-29
IGROV-1 = tested on: IGROV-1
K562 = tested on: K562
KM-20L2 = tested on: KM-20L2
LOX IMVI = tested on: LOX IMVI
LXFL 529 = tested on: LXFL 529
M14 = tested on: M14
M19-MEL = tested on: M19-MEL
MOLT-4 = tested on: MOLT-4
Malme-3M = tested on: Malme-3M
NCI-H226 = tested on: NCI-H226
NCI-H23 = tested on: NCI-H23
NCI-H460 = tested on: NCI-H460
OVCAR-3 = tested on: OVCAR-3
OVCAR-4 = tested on: OVCAR-4
OVCAR-8 = tested on: OVCAR-8
RPMI-8226 = tested on: RPMI-8226
RXF 393 = tested on: RXF 393
RXF 631 = tested on: RXF 631
SF-268 = tested on: SF-268
SF-295 = tested on: SF-295
SF-539 = tested on: SF-539
SK-MEL-28 = tested on: SK-MEL-28
SK-MEL-2 = tested on: SK-MEL-2
SK-MEL-5 = tested on: SK-MEL-5
SN12C = tested on: SN12C
SNB-19 = tested on: SNB-19
SNB-75 = tested on: SNB-75
SR = tested on: SR
SW-620 = tested on: SW-620
TK-10 = tested on: TK-10
U-251 = tested on: U-251
UACC-257 = tested on: UACC-257
UACC-62 = tested on: UACC-62
UO-31 = tested on: UO-31
XF498 = tested on: XF498
CAKI-1 = tested on: CAKI-1
HOP-92 = tested on: HOP-92
KM12 = tested on: KM12
NCI-H522 = tested on: NCI-H522
OVCAR-5 = tested on: OVCAR-5
SK-OV-3 = tested on: SK-OV-3
SNB-78 = tested on: SNB-78

CCOC(=O)C1=C(C)N(c2ccc(C)cc2)C2=C(C(=O)N(c3ccccc3)C2c2ccccc2)C1c1ccccc1 (configuration not stated)
GI50 (786-0): > 25 µM (inactive) | GI50 (A498): > 25 µM (inactive) | GI50 (A549): 10.7 µM (inactive) | GI50 (ACHN): 16.6 µM (inactive) | GI50 (CCRF-CEM): 20.8 µM (inactive) | GI50 (COLO 205): > 25 µM (inactive) | GI50 (DLD-1): 12.3 µM (inactive) | GI50 (DMS-114): 17.9 µM (inactive) | GI50 (DMS-273): > 25 µM (inactive) | GI50 (EKVX): > 25 µM (inactive) | GI50 (HCC 2998): 18.4 µM (inactive) | GI50 (HCT-116): 17.6 µM (inactive) | GI50 (HCT-15): > 25 µM | GI50 (HL-60): > 25 µM (inactive) | GI50 (HOP-62): > 25 µM (inactive) | GI50 (HT-29): > 25 µM (inactive) | GI50 (IGROV-1): > 25 µM (inactive) | GI50 (K562): 19.8 µM (inactive) | GI50 (KM-20L2): > 25 µM (inactive) | GI50 (LOX IMVI): > 25 µM (inactive) | GI50 (LXFL 529): 20 µM (inactive) | GI50 (M14): > 25 µM (inactive) | GI50 (M19-MEL): > 25 µM (inactive) | GI50 (MOLT-4): 7.82 µM (inactive) | GI50 (Malme-3M): > 25 µM (inactive) | GI50 (NCI-H226): > 25 µM (inactive) | GI50 (NCI-H23): 11.9 µM (inactive) | GI50 (NCI-H460): 13.3 µM (inactive) | GI50 (OVCAR-3): > 25 µM (inactive) | GI50 (OVCAR-4): 11.3 µM (inactive) | GI50 (OVCAR-8): > 25 µM (inactive) | GI50 (RPMI-8226): 14 µM (inactive) | GI50 (RXF 393): 0.558 µM (active) | GI50 (RXF 631): > 25 µM (inactive) | GI50 (SF-268): > 25 µM (inactive) | GI50 (SF-295): 22.2 µM (inactive) | GI50 (SF-539): > 25 µM (inactive) | GI50 (SK-MEL-28): > 25 µM (inactive) | GI50 (SK-MEL-2): > 25 µM (inactive) | GI50 (SK-MEL-5): 16.5 µM (inactive) | GI50 (SN12C): > 25 µM (inactive) | GI50 (SNB-19): > 25 µM (inactive) | GI50 (SNB-75): 1.51 µM (inactive) | GI50 (SR): 17.7 µM (inactive) | GI50 (SW-620): > 25 µM (inactive) | GI50 (TK-10): > 25 µM (inactive) | GI50 (U-251): > 25 µM (inactive) | GI50 (UACC-257): > 25 µM (inactive) | GI50 (UACC-62): 17.2 µM (inactive) | GI50 (UO-31): 21 µM (inactive) | GI50 (XF498): > 25 µM (inactive)

OCc1cc2c(cn1)[nH]c1ccc(NCc3ccccc3)cc12
GI50 (786-0): 25.2 µM (inactive) | GI50 (A498): 17.8 µM (inactive) | GI50 (A549): 28.1 µM (inactive) | GI50 (ACHN): 20 µM (inactive) | GI50 (CAKI-1): 27.4 µM (inactive) | GI50 (CCRF-CEM): 20.7 µM (inactive) | GI50 (COLO 205): 17.7 µM (inactive) | GI50 (DLD-1): 34.8 µM (inactive) | GI50 (DMS-114): 15.6 µM (inactive) | GI50 (DMS-273): 20.7 µM (inactive) | GI50 (EKVX): 37.1 µM (inactive) | GI50 (HCC 2998): 24.8 µM (inactive) | GI50 (HCT-116): 16.4 µM (inactive) | GI50 (HCT-15): 27.2 µM | GI50 (HL-60): 12.1 µM (inactive) | GI50 (HOP-62): 51.9 µM (inactive) | GI50 (HOP-92): 15.9 µM (inactive) | GI50 (HT-29): 14.8 µM (inactive) | GI50 (IGROV-1): 43 µM (inactive) | GI50 (K562): 23 µM (inactive) | GI50 (KM-20L2): 14.4 µM (inactive) | GI50 (KM12): 18.6 µM (inactive) | GI50 (LOX IMVI): 28.4 µM (inactive) | GI50 (LXFL 529): 17.9 µM (inactive) | GI50 (M14): 16.4 µM (inactive) | GI50 (M19-MEL): 22.2 µM (inactive) | GI50 (MOLT-4): 17.5 µM (inactive) | GI50 (Malme-3M): 28.7 µM (inactive) | GI50 (NCI-H226): 19.1 µM (inactive) | GI50 (NCI-H23): 20 µM (inactive) | GI50 (NCI-H460): 24.4 µM (inactive) | GI50 (NCI-H522): 15.7 µM (inactive) | GI50 (OVCAR-3): 19.4 µM (inactive) | GI50 (OVCAR-4): 26.5 µM (inactive) | GI50 (OVCAR-5): 27.7 µM (inactive) | GI50 (OVCAR-8): 29.4 µM (inactive) | GI50 (RPMI-8226): 11 µM (inactive) | GI50 (RXF 393): 20.3 µM (inactive) | GI50 (RXF 631): 27.4 µM (inactive) | GI50 (SF-268): 20.5 µM (inactive) | GI50 (SF-295): 22.3 µM (inactive) | GI50 (SF-539): 30.3 µM (inactive) | GI50 (SK-MEL-28): 16.1 µM (inactive) | GI50 (SK-MEL-2): 40.2 µM (inactive) | GI50 (SK-MEL-5): 12.2 µM (inactive) | GI50 (SK-OV-3): 25.5 µM (inactive) | GI50 (SN12C): 34.9 µM (inactive) | GI50 (SNB-19): 37.3 µM (inactive) | GI50 (SNB-75): 25.5 µM (inactive) | GI50 (SW-620): 27.4 µM (inactive) | GI50 (TK-10): 30.6 µM (inactive) | GI50 (U-251): 38.9 µM (inactive) | GI50 (UACC-257): 23.3 µM (inactive) | GI50 (UACC-62): 17.2 µM (inactive) | GI50 (UO-31): 20.7 µM (inactive) | GI50 (XF498): 25.8 µM (inactive)

COC1=CC(=O)[C@@]2(C)C(C)[C@H](c3ccccc3)[C@H]2C1=O (some centres not stated)
GI50 (786-0): > 100 µM (inactive) | GI50 (A498): > 100 µM (inactive) | GI50 (A549): > 100 µM (inactive) | GI50 (ACHN): > 100 µM (inactive) | GI50 (CAKI-1): > 100 µM (inactive) | GI50 (CCRF-CEM): > 100 µM (inactive) | GI50 (COLO 205): > 100 µM (inactive) | GI50 (DLD-1): > 100 µM (inactive) | GI50 (DMS-273): > 100 µM (inactive) | GI50 (EKVX): > 100 µM (inactive) | GI50 (HCC 2998): > 100 µM (inactive) | GI50 (HCT-15): > 100 µM | GI50 (HL-60): > 100 µM (inactive) | GI50 (HOP-62): > 100 µM (inactive) | GI50 (HOP-92): > 100 µM (inactive) | GI50 (HT-29): > 100 µM (inactive) | GI50 (IGROV-1): > 100 µM (inactive) | GI50 (K562): > 100 µM (inactive) | GI50 (KM-20L2): > 100 µM (inactive) | GI50 (KM12): > 100 µM (inactive) | GI50 (LOX IMVI): > 100 µM (inactive) | GI50 (LXFL 529): > 100 µM (inactive) | GI50 (M14): > 100 µM (inactive) | GI50 (M19-MEL): > 100 µM (inactive) | GI50 (MOLT-4): > 100 µM (inactive) | GI50 (Malme-3M): > 100 µM (inactive) | GI50 (NCI-H226): > 100 µM (inactive) | GI50 (NCI-H23): > 100 µM (inactive) | GI50 (NCI-H460): > 100 µM (inactive) | GI50 (NCI-H522): > 100 µM (inactive) | GI50 (OVCAR-3): > 100 µM (inactive) | GI50 (OVCAR-4): > 100 µM (inactive) | GI50 (OVCAR-5): > 100 µM (inactive) | GI50 (OVCAR-8): > 100 µM (inactive) | GI50 (RPMI-8226): > 100 µM (inactive) | GI50 (RXF 393): > 100 µM (inactive) | GI50 (RXF 631): > 100 µM (inactive) | GI50 (SF-268): > 100 µM (inactive) | GI50 (SF-295): > 100 µM (inactive) | GI50 (SF-539): > 100 µM (inactive) | GI50 (SK-MEL-28): > 100 µM (inactive) | GI50 (SK-MEL-2): > 100 µM (inactive) | GI50 (SK-MEL-5): > 100 µM (inactive) | GI50 (SK-OV-3): > 100 µM (inactive) | GI50 (SNB-19): > 100 µM (inactive) | GI50 (SNB-75): > 100 µM (inactive) | GI50 (SNB-78): > 10 µM (inactive) | GI50 (SR): > 100 µM (inactive) | GI50 (SW-620): > 100 µM (inactive) | GI50 (TK-10): > 100 µM (inactive) | GI50 (U-251): > 100 µM (inactive) | GI50 (UACC-257): > 100 µM (inactive) | GI50 (UACC-62): > 100 µM (inactive) | GI50 (UO-31): > 100 µM (inactive) | GI50 (XF498): > 100 µM (inactive)
